Measurements from the Bradley open melting point set (2014).
“And” between values parts separate entries of the source, which are not always exact repeats. Equal values may be shown once. Where a name gives a salt, the structure may show the parent alone.

Q: For Nc1ncnc2c1ncn2[C@@H]1O[C@H](CO)[C@@H](O)[C@H]1O [Adenosine] [listing 1 of 2 here], which melting point is on record?
A: 236 °C

Q: Which melting point does the source give for Nc1ncnc2c1ncn2[C@@H]1O[C@H](CO)[C@@H](O)[C@H]1O [Adenosine] [listing 2 of 2 here] here?
A: 234 °C

Q: With NC(=O)CCCCC(N)=O [Adipamide] as the compound, how does the melting point read?
A: 220 °C

Q: For NC12CC3CC(CC(C3)C1)C2 [Amantadine], which melting point is on record?
A: 180 °C

Q: Which melting point does the source give for Nc1ccc(C(=O)O)c(O)c1 [Aminosalicylic Acid] here?
A: 150 °C

Q: With CCCCCN [Amylamine] as the compound, how does the melting point read?
A: -55 °C

Q: With O=C(O)c1c2ccccc2cc2ccccc12 [Anthracene-9-carboxylic acid] as the compound, how does the melting point read?
A: 213 °C

Q: Which melting point does the source give for c1ccc2cc3ccccc3cc2c1 [Anthracene] here?
A: 216 °C

Q: With Cc1cc(=O)n(-c2ccccc2)n1C [Antipyrine] as the compound, how does the melting point read?
A: 112 °C

Q: For CC/N=c1/nc(Cl)[nH]/c(=N\C(C)C)[nH]1 [Atrazine], which melting point is on record?
A: 177 °C

Q: Which melting point does the source give for O=Cc1ccccc1 [Benzaldehyde] here?
A: -56 °C

Q: For NC(=O)c1ccccc1 [Benzamide], which melting point is on record?
A: 127 °C

Q: Which melting point does the source give for c1ccc2c(c1)cc1ccc3cccc4ccc2c1c34 [Benzo[a]pyrene] here?
A: 176 °C

Q: For c1ccc2c(c1)ccc1cc3c(ccc4ccccc43)cc12 [Benzo[k]tetraphene], which melting point is on record?
A: 266 °C

Q: For N#Cc1ccccc1 [Benzonitrile], which melting point is on record?
A: -13 °C

Q: Which melting point does the source give for O=C(OCc1ccccc1)c1ccccc1 [Benzyl Benzoate] here?
A: 21 °C

Q: For NCc1ccccc1 [Benzylamine], which melting point is on record?
A: 10 °C

Q: For CC(=O)C(C)=O [Biacetyl], which melting point is on record?
A: -3 °C

Q: With O=C(O)CCCC[C@@H]1SC[C@@H]2NC(=O)N[C@@H]21 [Biotin] as the compound, how does the melting point read?
A: 232 °C

Q: Which melting point does the source give for Oc1ccccc1-c1ccccc1 [Biphenyl-2-ol] here?
A: 57 °C

Q: For [2H]C([2H])([2H])S(=O)C([2H])([2H])[2H] [Bis[(~2~H_3_)methyl] sulfoxide], which melting point is on record?
A: 18.4 °C

Q: For ClCBr [Bromo(chloro)methane], which melting point is on record?
A: -88 °C

Q: For CCBr [Bromoethane], which melting point is on record?
A: -119 °C

Q: Which melting point does the source give for CCCCN1CCCCC1C(=O)Nc1c(C)cccc1C (stereo not drawn) [Bupivacaine] here?
A: 108 °C

Q: With OCC#CCO [But-2-yne-1,4-diol] as the compound, how does the melting point read?
A: 57 °C

Q: For NCCCCN [Butane-1,4-diamine], which melting point is on record?
A: 27.5 °C

Q: Which melting point does the source give for OCCCCO [Butane-1,4-diol] here?
A: 18 °C

Q: Which melting point does the source give for CCCCC1(CC)C(=O)NC(=O)NC1=O [Butethal] here?
A: 128 °C

Q: For CCCCOC(=O)c1ccc(O)cc1 [Butyl 4-hydroxybenzoate], which melting point is on record?
A: 69 °C

Q: With CCCCC1CCCCC1 [Butylcyclohexane] as the compound, how does the melting point read?
A: -75 °C

Q: With Cn1c(=O)c2c(ncn2C)n(C)c1=O [Caffeine] [listing 1 of 2 here] as the compound, how does the melting point read?
A: 236 °C

Q: Which melting point does the source give for Cn1c(=O)c2c(ncn2C)n(C)c1=O [Caffeine] [listing 2 of 2 here] here?
A: 238 °C

Q: For C[C@H](CS)C(=O)N1CCC[C@H]1C(=O)O [Captopril], which melting point is on record?
A: 106 °C

Q: Which melting point does the source give for NC(=O)N1c2ccccc2C=Cc2ccccc21 [Carbamazepine] [listing 1 of 2 here] here?
A: 190 °C

Q: For NC(=O)N1c2ccccc2C=Cc2ccccc21 [Carbamazepine] [listing 2 of 2 here], which melting point is on record?
A: 190 °C

Q: Which melting point does the source give for NC(CN(Cc1ccccc1)c1ccccc1)=NO [Cetoxime] here?
A: 107 °C

Q: Which melting point does the source give for N=C(NCCCCCCNC(=N)NC(=N)Nc1ccc(Cl)cc1)NC(=N)Nc1ccc(Cl)cc1 [Chlorhexidine] here?
A: 134 °C

Q: Which melting point does the source give for FC(F)Cl [Chloro(difluoro)methane] here?
A: -146 °C

Q: For O=C(O)CCl [Chloroacetic acid], which melting point is on record?
A: 63 °C

Q: For CCCNC(=O)NS(=O)(=O)c1ccc(Cl)cc1 [Chlorpropamide], which melting point is on record?
A: 128 °C

Q: Which melting point does the source give for COc1cc(N)c(Cl)cc1C(=O)NC1CCN(CCCOc2ccc(F)cc2)CC1OC (stereo not drawn) [Cisapride] here?
A: 110 °C

Q: For CC[C@H]1OC(=O)[C@H](C)[C@@H](O[C@@H]2C[C@](C)(OC)[C@H](O)[C@@H](C)O2)[C@H](C)[C@@H](O[C@@H]2O[C@H](C)C[C@H](N(C)C)[C@H]2O)[C@](C)(OC)C[C@@H](C)C(=O)[C@H](C)[C@@H](O)[C@]1(C)O [Clarithromycin], which melting point is on record?
A: 218 °C

Q: For O=C1CN=C(c2ccccc2Cl)c2cc([N+](=O)[O-])ccc2N1 [Clonazepam], which melting point is on record?
A: 238 °C

Q: Which melting point does the source give for c1cc2ccc3ccc4ccc5ccc6ccc1c1c2c3c4c5c61 [Coronene] here?
A: 438 °C

Q: Which melting point does the source give for C1CCCCCCCCCCC1 [Cyclododecane] here?
A: 61 °C

Q: For NC1CCCCC1 [Cyclohexanamine], which melting point is on record?
A: -18 °C

Q: For [C-]#[N+]C1CCCCC1 [Cyclohexyl isocyanide], which melting point is on record?
A: 6 °C

Q: For c1ccc(C2CCCCC2)cc1 [Cyclohexylbenzene], which melting point is on record?
A: 5 °C

Q: Which melting point does the source give for O=P1(N(CCCl)CCCl)NCCCO1 (stereo not drawn) [Cyclophosphamide] here?
A: 43 °C

Q: With NS(=O)(=O)c1cc2c(cc1Cl)NC(C1CC3C=CC1C3)NS2(=O)=O (stereo not drawn) [Cyclothiazide] as the compound, how does the melting point read?
A: 228 °C

Q: For Nc1ccn([C@@H]2O[C@H](CO)[C@@H](O)[C@H]2O)c(=O)n1 [Cytidine], which melting point is on record?
A: 210 °C

Q: With OC[C@@H](O)[C@@H](O)[C@@H](O)CO [D-Ribitol] as the compound, how does the melting point read?
A: 102 °C

Q: With O=C(CO)[C@H](O)[C@@H](O)[C@H](O)CO [D-Sorbose] as the compound, how does the melting point read?
A: 95 °C

Q: With C[C@@H](O)[C@@H](N)C(=O)O [D-allo-threonine] as the compound, how does the melting point read?
A: 278 °C

Q: For C(O)[C@@H](O)[C@@H](O)[C@H](O)CO [D-arabitol], which melting point is on record?
A: 102 °C

Q: Which melting point does the source give for CC1(C)O[C@@H]2CO[C@]3(COC(C)(C)O3)C(=O)[C@@H]2O1 [D-epoxone] here?
A: 102 °C

Q: Which melting point does the source give for O[C@@H]1[C@H](O)[C@@H](O)OC[C@H]1O [D-lyxose] here?
A: 112 °C

Q: Which melting point does the source give for N[C@@H](CO)Cc1ccccc1 [D-phenylalaninol] here?
A: 92 °C

Q: With O=C(O)[C@@]1(O)CC(O)[C@H](O)[C@H](O)C1 (stereo partly drawn) [D-quinic acid] as the compound, how does the melting point read?
A: 165 °C

Q: For OCc1ccccc1O[C@@H]1O[C@H](CO)[C@@H](O)[C@H](O)[C@H]1O [D-salicin], which melting point is on record?
A: 199 °C

Q: With O=C(CO)[C@H](O)[C@@H](O)[C@H](O)CO [D-sorbose] as the compound, how does the melting point read?
A: 164 °C

Q: Which melting point does the source give for Clc1ccc(C(c2ccc(Cl)cc2)C(Cl)(Cl)Cl)cc1 [DDT] here?
A: 109 °C (4×) and 108 °C (2×)

Q: For CCOC(=O)C(C#N)=c1sc(=C(C#N)C(=O)OCC)s1 [DIETHYL 2,2'-(1,3-DITHIETANE-2,4-DIYLIDENE)BIS(CYANOACETATE)], which melting point is on record?
A: 161 °C

Q: With C#CCCCCCCCC [Dec-1-yne] as the compound, how does the melting point read?
A: -44 °C

Q: For CCCCCCCCCCc1ccccc1 [Decylbenzene], which melting point is on record?
A: -14 °C

Q: With C[C@@H]1C[C@H]2[C@@H]3CCC4=CC(=O)C=C[C@]4(C)[C@@]3(F)[C@@H](O)C[C@]2(C)[C@@]1(O)C(=O)CO [Dexamethasone] as the compound, how does the melting point read?
A: 262 °C

Q: Which melting point does the source give for C[C@@H](CN1CC(=O)NC(=O)C1)N1CC(=O)NC(=O)C1 [Dexrazoxane] here?
A: 194 °C

Q: With CC1=NS(=O)(=O)c2cc(Cl)ccc2N1 [Diazoxide] as the compound, how does the melting point read?
A: 330 °C

Q: For c1ccc2c(c1)ccc1cc3c(ccc4ccccc43)cc12 [Dibenz[ah]anthracene], which melting point is on record?
A: 269 °C

Q: Which melting point does the source give for BrCBr [Dibromomethane] here?
A: -52 °C

Q: Which melting point does the source give for FC(F)(Cl)Cl [Dichloro(difluoro)methane] here?
A: -158 °C

Q: With O=C(O)C(Cl)Cl [Dichloroacetic acid] as the compound, how does the melting point read?
A: 9.7 °C

Q: For ClC1=C(Cl)C2(Cl)C3C4CC(C5OC45)C3C1(Cl)C2(Cl)Cl (stereo not drawn) [Dieldrin], which melting point is on record?
A: 175 °C

Q: For CCOC(=O)OCC [Diethyl carbonate], which melting point is on record?
A: -43 °C

Q: For CCOCC [Diethyl ether], which melting point is on record?
A: -116 °C

Q: With CCOC(=O)CC(=O)OCC [Diethyl malonate] as the compound, how does the melting point read?
A: -50 °C

Q: With CCOS(=O)(=O)OCC [Diethyl sulfate] as the compound, how does the melting point read?
A: -24 °C

Q: For Oc1ccc(cc1)C(CC)=C(/CC)c2ccc(O)cc2 [Diethylstilbestrol], which melting point is on record?
A: 170 °C

Q: With C[C@H]1O[C@@H](O[C@H]2[C@@H](O)C[C@H](O[C@H]3[C@@H](O)C[C@H](O[C@H]4CC[C@@]5(C)[C@H](CC[C@@H]6[C@@H]5CC[C@]5(C)[C@@H](C7=CC(=O)OC7)CC[C@]65O)C4)O[C@@H]3C)O[C@@H]2C)C[C@H](O)[C@@H]1O [Digitoxin] as the compound, how does the melting point read?
A: 256 °C

Q: For CC(C)SC(C)C [Diisopropyl sulfide], which melting point is on record?
A: -106 °C

Q: Which melting point does the source give for COC(=O)CCCCC(=O)OC [Dimethyl adipate] here?
A: 8 °C

Q: With COC(=O)CCC(=O)OC [Dimethyl succinate] as the compound, how does the melting point read?
A: 19.5 °C

Q: Which melting point does the source give for CSC [Dimethyl sulfide] here?
A: -98 °C

Q: For COC(=O)c1ccc(C(=O)OC)cc1 [Dimethyl terephthalate], which melting point is on record?
A: 141 °C

Q: With CN(C)C=O [Dimethylformamide] as the compound, how does the melting point read?
A: -60.4 °C

Q: With c1ccc(Oc2ccccc2)cc1 [Diphenyl ether] as the compound, how does the melting point read?
A: 27 °C

Q: With CCCCCCCCCCCC(=O)OOC(=O)CCCCCCCCCCC [Diundecylperoxyanhydride] as the compound, how does the melting point read?
A: 56 °C

Q: Which melting point does the source give for CCCCCCCCCCCCO [Dodecan-1-ol] here?
A: 24 °C

Q: For CCCCCCCCCCCCO[C@@H]1O[C@H](CO)[C@@H](O[C@H]2O[C@H](CO)[C@@H](O)[C@H](O)[C@H]2O)[C@H](O)[C@H]1O [Dodecyl 4-O-alpha-D-glucopyranosyl-beta-D-glucopyranoside], which melting point is on record?
A: 150 °C

Q: For CN(C)CCC=C1c2ccccc2COc2ccccc21 [Doxepin], which melting point is on record?
A: 185 °C

Q: Which melting point does the source give for Clc1ccc(COC(Cn2ccnc2)c2ccc(Cl)cc2Cl)cc1 (stereo not drawn) [Ecostatin] here?
A: 87 °C

Q: With ClC1=C(Cl)C2(Cl)C3C4CC(C5OC45)C3C1(Cl)C2(Cl)Cl (stereo not drawn) [Endrin] as the compound, how does the melting point read?
A: 210 °C

Q: Which melting point does the source give for CSc1ccc(C(=O)c2[nH]c(=O)[nH]c2C)cc1 [Enoximone] here?
A: 256 °C

Q: Which melting point does the source give for CN[C@@H](C)[C@H](O)c1ccccc1 [Ephedrine] here?
A: 34 °C

Q: For C=CCOc1ccc(CC(=O)O)cc1Cl [Epinal], which melting point is on record?
A: 92 °C

Q: Which melting point does the source give for C=C(CC)C(=O)c1ccc(OCC(=O)O)c(Cl)c1Cl [Ethacrynic acid] here?
A: 122 °C

Q: For SCCS [Ethane-1,2-dithiol], which melting point is on record?
A: -41 °C

Q: Which melting point does the source give for CC(=O)OO [Ethaneperoxoic acid] here?
A: 0.1 °C

Q: With CCO [Ethanol] as the compound, how does the melting point read?
A: -114 °C

Q: With C=C(C#N)C(=O)OCC [Ethyl 2-cyanoacrylate] as the compound, how does the melting point read?
A: -22 °C

Q: Which melting point does the source give for CCOC(=O)c1ccc(O)cc1 [Ethyl 4-hydroxybenzoate] here?
A: 117 °C

Q: Which melting point does the source give for CCOC(=O)/C=C/c1ccccc1 [Ethyl (2E)-3-phenylacrylate] here?
A: 7 °C

Q: With CCOC(=O)/C(C#N)=C\c1ccc(-c2ccccc2)o1 [Ethyl (2Z)-2-cyano-3-(5-phenyl-2-furyl)acrylate] as the compound, how does the melting point read?
A: 117 °C
